Results from patent US20220304911A1, “ORAL CARE PRODUCT WITH CANNABINOID COMPOUNDS” (Demetrix, Inc., priority 2021, published 2022).
Values after ≈ are worked out from the molar mass of the structure shown. Where two headings read alike, the source gives them in different places.

Tested on: Streptococcus mutans (S. mutans)
Experiment: minimum inhibitory concentration (MIC) assay against S. mutans
Type: cell-based
Experimental: As used herein “minimum inhibitory concentration” or “MIC” refers to the lowest concentration (in μg/mL) of an antibiotic that inhibits the growth of a given strain of bacteria.
To determine the ability of the cannabinoid compounds described herein to reduce, or eliminate, S. mutans, a minimum inhibitory concentration (“MIC”) assay was performed. The assay was performed by Charles River Discovery Research Services UK Limited (Portishead, United Kingdom) in accordance with industry standards.

[1] = Streptococcus mutans, read-out: minimum inhibitory concentration (MIC) against S. mutans
[2] = S. mutans, assay performed by Charles River Discovery Research Services UK Limited

CCCCCc1cc(O)c2c(c1)OC(C)(CCC=C(C)C)C=C2 (stereo not shown) [CBC, cannabichromene]
MIC (Streptococcus mutans): 25 µg/mL (≈ 79.5 µM) | MIC [1]: < 25 µg/mL

CCCCCc1cc2c(c(O)c1C(=O)O)C=CC(C)(CCC=C(C)C)O2 (stereo not shown) [CBCA, cannabichromenic acid]
MIC [2]: >200 µg/mL

C=C(C)[C@@H]1CCC(C)=C[C@H]1c1c(O)cc(CCCCC)cc1O [CBD, cannabidiol]
MIC (Streptococcus mutans, S. mutans, assay performed by Charles River Discovery Research Services UK Limited, read-out: MIC): 25 µg/mL (≈ 79.5 µM) | MIC (Streptococcus mutans, S. mutans, summary statement in the description, read-out: minimum inhibitory concentration (MIC) against S. mutans): < 25 µg/mL

C=C(C)[C@@H]1CCC(C)=C[C@H]1c1c(O)cc(C)cc1O [CBD-C1]
MIC [2]: 100 µg/mL (≈ 387 µM)

C=C(C)[C@@H]1CCC(C)=C[C@H]1c1c(O)cc(CC)cc1O [CBD-C2, cannabidiol ethyl]
MIC [2]: 25 µg/mL (≈ 91.8 µM)

C=C(C)[C@@H]1CCC(C)=C[C@H]1c1c(O)cc(CCCC)cc1O [CBD-C4, cannabidibutol]
MIC [2]: 25 µg/mL (≈ 83.2 µM)

C=C(C)[C@@H]1CCC(C)=C[C@H]1c1c(O)cc(CCCCC)c(C(=O)O)c1O [CBDA, cannabidiolic acid]
MIC (Streptococcus mutans): 25 µg/mL (≈ 69.7 µM) | MIC [1]: < 25 µg/mL

C=C(C)[C@@H]1CCC(C)=C[C@H]1c1c(O)cc(CCC)cc1O [CBDV, cannabidivarin]
MIC (Streptococcus mutans): 25 µg/mL (≈ 87.3 µM) | MIC [1]: < 25 µg/mL

C=C(C)[C@@H]1CCC(C)=C[C@H]1c1c(O)cc(CCC)c(C(=O)O)c1O [CBDVA, cannabidivarinic acid]
MIC [2]: 25 µg/mL (≈ 75.7 µM)

CCCCCc1cc(O)c(C/C=C(\C)CCC=C(C)C)c(O)c1 [CBG, cannabigerol]
MIC (Streptococcus mutans): 25 µg/mL (≈ 79 µM) | MIC [1]: < 25 µg/mL

CCCCc1cc(O)c(CC=C(C)CCC=C(C)C)c(O)c1 [CBG-C4, cannabigerol butyl]
MIC [2]: 25 µg/mL (≈ 82.7 µM)

CCCCCc1cc(O)c(C/C=C(\C)CCC=C(C)C)c(O)c1C(=O)O [CBGA, cannabigerolic acid]
MIC (Streptococcus mutans): 25 µg/mL (≈ 69.3 µM) | MIC [1]: < 25 µg/mL

CCCCc1cc(O)c(C/C=C(\C)CCC=C(C)C)c(O)c1C(=O)O [CBGA-C4, cannabigerolic acid butyl]
MIC [2]: 12.5 µg/mL (≈ 36.1 µM)

CCCc1cc(O)c(C/C=C(\C)CCC=C(C)C)c(O)c1 [CBGV, cannabigerovarin]
MIC [2]: 25 µg/mL (≈ 86.7 µM)

CCCc1cc(O)c(C/C=C(\C)CCC=C(C)C)c(O)c1C(=O)O [CBGVA, cannabigerovarinic acid]
MIC [2]: >200 µg/mL

CCCCCc1cc(O)c2c(c1)OC1(C)CCC3C1C2C3(C)C (stereo not shown) [CBL, cannabicyclol]
MIC (Streptococcus mutans): > 200 µg/mL | MIC [1]: > 25 µg/mL

CCCCCc1cc2c(c(O)c1C(=O)O)C1C3C(CCC3(C)O2)C1(C)C (stereo not shown) [CBLA, cannabicyclolic acid]
MIC [2]: >200 µg/mL

CCCCCc1cc(O)c2c(c1)OC(C)(C)c1ccc(C)cc1-2 [CBN, cannabinol]
MIC (Streptococcus mutans): 50 µg/mL (≈ 161 µM) | MIC [1]: > 25 µg/mL

CCCCCc1cc2c(c(O)c1C(=O)O)-c1cc(C)ccc1C(C)(C)O2 [CBNA, cannabinolic acid]
MIC [2]: >200 µg/mL

(+)-cannabidiol [(+)-CBD]
MIC [2]: 25 µg/mL
